The values that follow come from patent US11946094B2, “Combination therapies and methods of use thereof” (Augusta University Research Institute, Inc., priority 2017, dated 2024).

Structures can show the parent of a compound that is named as a salt. Where two headings read alike, the source gives them in different places.

The test system of this test is OVCAR-8 cells. As to the kind of experiment: Drug-siRNA combination screen: 346-compound anticancer library at 100 nM, CCK-8 viability. The conditions noted are these: for number of genes (of 18) whose knockdown synergizes with the drug / synergy / antagonism of drug with gene knockdowns, in words: drug 100 nM; for number of genes (of 18) whose knockdown synergizes with the drug: siRNA knockdown; for synergy / antagonism of drug with gene knockdowns, in words: panel of 18 siRNA knockdowns.

Where [1] appears, read: OVCAR-8, drug 100 nM plus siRNA knockdown of each of 18 genes, distance VAB−VA×VB in SD, single gene contributes at most +5 / −5, negative = synergy, positive = antagonism.

As to `COCCn1c2c([n+](Cc3cnccn3)c1C)C(=O)c1ccccc1C2=O` [YM155], the “Score (sum of observed SD values for 18 genes)” value under setting [1] is given as −1.58 SD.
The same measure, in the same setting: the value for `CCC1(c2ccc(N)cc2)CCC(=O)NC1=O` (centres unmarked) [Aminoglutethimide] was −9.32 SD; that for `OCCn1cc(-c2ccc3c(c2)CC/C3=N\O)c(-c2ccncc2)n1` [GDC - 0879] was 23.19 SD; that for `CS(=O)(=O)N1CCc2c(-c3cnc(N)nc3)nc(N3CCOCC3)nc21` [CH5132799] was 15.96 SD.
With `Cc1ccc([C@@H]2O[C@H](CO)[C@@H](O)[C@H](O)[C@H]2O)cc1Cc1ccc(-c2ccc(F)cc2)s1` [Canagliflozin], under setting [1], the “Score (sum of observed SD values for 18 genes)” value is reported as −25.46 SD.
Still for that read-out and setting: the value for `C[C@@H](Oc1cc(-n2cnc3ccc(CN4CCN(C)CC4)cc32)sc1C(N)=O)c1ccccc1C(F)(F)F` [GSK461364] was 4.65 SD; that for `Cc1c(C(=O)Nc2ccc(N3C[C@@H](C)O[C@@H](C)C3)nc2)cccc1-c1ccc(OC(F)(F)F)cc1` [Erismodegib] was 3.22 SD; that for `C[C@]12C=CC(=O)C=C1CC[C@@H]1[C@@H]2C(=O)C[C@@]2(C)[C@H]1CC[C@]2(O)C(=O)CO` [Prednisone] was −20.64 SD.
The same measure, in the same setting: next, `CC[C@@H]1C(=O)N(C)c2cnc(Nc3ccc(C(=O)NC4CCN(C)CC4)cc3OC)nc2N1C1CCCC1` [BI2536]: 12.6 SD.
With `c1ccc2c(CCNc3ccc(Nc4ccncc4)cc3)c[nH]c2c1` [Serdemetan], the “Score (sum of observed SD values for 18 genes)” value under setting [1] is reported as −29.35 SD.
On to `O=c1c(O)c(-c2ccc(O)c(O)c2)oc2cc(O)cc(O)c12` [Quercetin], for which the “Score (sum of observed SD values for 18 genes)” value under setting [1] is on record as −5.63 SD.
`COc1ccc(-c2ccc3c(N4CCOC[C@@H]4C)nc(N4CCOC[C@@H]4C)nc3n2)cc1CO` [AZD8055]: the “Score (sum of observed SD values for 18 genes)” value under setting [1] is on record as -51.01 SD.
On to `CCCCCCNC(=O)n1cc(F)c(=O)[nH]c1=O` [Carmofur], for which the “Score (sum of observed SD values for 18 genes)” value under setting [1] is −18.23 SD.
Same read-out and setting: the value for `CN(C)CC[C@H](CSc1ccccc1)Nc1ccc(S(=O)(=O)NC(=O)c2ccc(N3CCN(Cc4ccccc4-c4ccc(Cl)cc4)CC3)cc2)cc1[N+](=O)[O-]` [ABT-737] was −5.9 SD; that for `CN(C)CCOc1ccc(/C(=C(/CCCl)c2ccccc2)c2ccccc2)cc1` [Toremifene Citrate] was −22.88 SD.
As for `Cc1ccc([N+](=O)[O-])cc1S(=O)(=O)N(C)/N=C/c1cnc2ccc(Br)cn12` [PIK-75], the “Score (sum of observed SD values for 18 genes)” value under setting [1] is −19.42 SD.
Turning to `CN(c1ncccc1CNc1nc(Nc2ccc3c(c2)CC(=O)N3)ncc1C(F)(F)F)S(C)(=O)=O` [PF - 562271], under setting [1], the “Score (sum of observed SD values for 18 genes)” value is given as −17.41 SD.
On the same count and under the same terms, next, `COC1=CC(c2cc3ccccc3[nH]2)=N/C1=C\c1[nH]c(C)cc1C` [Obatoclax mesylate]: −10.02 SD; `Cc1ccc(C(=O)N(CCCN)[C@@H](c2nc3cc(Cl)ccc3c(=O)n2Cc2ccccc2)C(C)C)cc1` [Ispinesib]: 1.22 SD.
Same read-out and setting: next, `CCN[C@H]1C[C@H](C)S(=O)(=O)c2sc(S(N)(=O)=O)cc21.Cl` [Dorzolamide HCI]: 9.66 SD; `O=C(c1cc(Cc2n[nH]c(=O)c3ccccc23)ccc1F)N1CCN(C(=O)C2CC2)CC1` [Olaparib]: −19.18 SD.
In the case of `COC1=C2C[C@@H](C)C[C@H](OC)[C@H](O)[C@@H](C)/C=C(\C)[C@H](OC(N)=O)[C@@H](OC)/C=C\C=C(/C)C(=O)NC(=CC1=O)C2=O` [Geldanamycin], the “Score (sum of observed SD values for 18 genes)” value under setting [1] amounted to 4.47 SD.
Same read-out and setting: next, `NC(=O)CC[C@@H](N)C(=O)O` [D-glutamine]: 0.27 SD; `CC#C[C@]1(O)CC[C@H]2[C@@H]3CCC4=CC(=O)CCC4=C3[C@@H](c3ccc(N(C)C)cc3)C[C@@]21C` [Mifepristone]: −22.75 SD.
On to `COc1cc(OC)c(/C=C/S(=O)(=O)Cc2ccc(OC)c(NCC(=O)O)c2)c(OC)c1` [Rigosertib], for which, under setting [1], the “Score (sum of observed SD values for 18 genes)” value turned out to be 6.43 SD.
For `CCOc1ccc(Cc2cc([C@@H]3O[C@H](CO)[C@@H](O)[C@H](O)[C@H]3O)ccc2Cl)cc1` [Dapagliflozin], the “Score (sum of observed SD values for 18 genes)” value under setting [1] is recorded as −15.72 SD.
The same measure, in the same setting: the value for `C/C(=C\C(=O)Nc1ccccc1C(=O)O)c1ccc2ccccc2c1` [BIBR 1532] was −16.4 SD.
Take `CNC(=O)c1ccc(C)c(-n2c(C)cc(OCc3ccc(F)cc3F)c(Br)c2=O)c1` [PH-797804]: the “Score (sum of observed SD values for 18 genes)” value under setting [1] is -64.86 SD. Also, under “OVCAR-8”, the “number of genes (of 18) whose knockdown synergizes with the drug” value (“number of genes” for short) is 14 genes.
As to `CC1(C)CCC(c2ccc(Cl)cc2)=C(CN2CCN(c3ccc(C(=O)NS(=O)(=O)c4ccc(N[C@H](CCN5CCOCC5)CSc5ccccc5)c(S(=O)(=O)C(F)(F)F)c4)cc3)CC2)C1` [Navitoclax], the “Score (sum of observed SD values for 18 genes)” value under setting [1] is recorded as −13.79 SD.
The same measure, in the same setting: the value for `COc1ccc(COc2cc3oc(=O)c4cc(C(C)O)ccc4c3cc2OC)cc1` (centres unmarked) [Palomid 529] was 11.53 SD; that for `Cc1ccc(S(=O)(=O)/C=C/C#N)cc1` [BAY 11-7082] was −5.7 SD.
In the case of `C[C@]12CCC(=O)C=C1CC[C@@H]1[C@@H]2[C@@H](O)C[C@@]2(C)[C@H]1CC[C@]2(O)C(=O)CO` [Hydrocortisone], the “Score (sum of observed SD values for 18 genes)” value under setting [1] is −21.54 SD.
Take `CC(C)C(=O)Nc1ccc([N+](=O)[O-])c(C(F)(F)F)c1` [Flutamide]: the “Score (sum of observed SD values for 18 genes)” value under setting [1] is given as 3.96 SD.
Still for that read-out and setting: next, `C=C1/C(=C\C=C2/CCC[C@]3(C)[C@@H]([C@H](C)/C=C/[C@H](C)C(C)C)CC[C@@H]23)C[C@@H](O)C[C@@H]1O` [Doxercalciferol]: −0.53 SD.
Consider `Cc1ccc(NC(=O)c2cccc(C(C)(C)C#N)c2)cc1Nc1ccc2ncn(C)c(=O)c2c1` [AZ628], for which the “Score (sum of observed SD values for 18 genes)” value under setting [1] is listed as −43.85 SD. Further, the “synergy / antagonism of drug with gene knockdowns, in words” value (from here on “synergy / antagonism of drug”) (OVCAR-8) is listed as “synergistic with knockdown of ten genes”.
As for `CCc1c2c(nc3ccc(OC(=O)N4CCC(N5CCCCC5)CC4)cc13)-c1cc3c(c(=O)n1C2)COC(=O)[C@]3(O)CC` [Irinotecan], the “Score (sum of observed SD values for 18 genes)” value under setting [1] is −36.08 SD.
For `O=C(O[C@@H]1Cc2c(O)cc(O)cc2O[C@@H]1c1cc(O)c(O)c(O)c1)c1cc(O)c(O)c(O)c1` [Epigallocatechin gallate], the “Score (sum of observed SD values for 18 genes)” value under setting [1] stood at 3.64 SD.
Still for that read-out and setting: next, `CC(C)c1ccccc1Cc1cc(C(=O)Nc2ccc(S(=O)(=O)c3ccccc3C(C)(C)C)cc2)c(O)c(O)c1O` [TW-37]: −36.72 SD.
Still for that read-out and setting: the value for `COc1c(C)c2c(c(O)c1C/C=C(\C)CCC(=O)O)C(=O)OC2` [Mycophenolic acid] was −20.87 SD; that for `CN(C)C/C=C/C(=O)Nc1cc2c(Nc3ccc(F)c(Cl)c3)ncnc2cc1O[C@H]1CCOC1` [Afatinib] was -54.76 SD; that for `O=C(Nc1cccnc1)N1CCC(Cc2cccc(Oc3ccc(C(F)(F)F)cn3)c2)CC1` [PF-3845] was -51.78 SD.
Same read-out and setting: the value for `CC(C)[C@]12O[C@H]1[C@@H]1O[C@]13[C@]1(O[C@H]1C[C@H]1C4=C(CC[C@@]13C)C(=O)OC4)[C@@H]2O` [Triptolide] was −15.95 SD; that for `C=C(c1ccc(C(=O)O)cc1)c1cc2c(cc1C)C(C)(C)CCC2(C)C` [Bexarotene] was −1.35 SD.
For `CN(NC(=O)CC(=O)NN(C)C(=S)c1ccccc1)C(=S)c1ccccc1` [Elesclomol], the “Score (sum of observed SD values for 18 genes)” value under setting [1] is reported as 11.26 SD.
Still for that read-out and setting: next, `CCNC(=O)c1noc(-c2cc(C(C)C)c(O)cc2O)c1-c1ccc(CN2CCOCC2)cc1` [AUY922]: 8.46 SD.
Take Maraviroc: the “Score (sum of observed SD values for 18 genes)” value is on record as 0.11 SD.
As to `Cc1cc(Nc2cc(N3CCN(C)CC3)nc(/C=C/c3ccccc3)n2)n[nH]1` [ENMD-2076], under setting [1], the “Score (sum of observed SD values for 18 genes)” value is on record as −47.04 SD. Also, the “synergy / antagonism of drug” value (OVCAR-8) was “significant synergy”.
As to `CC(C)c1onc(-c2c(Cl)cccc2Cl)c1COc1ccc(/C=C/c2cccc(C(=O)O)c2)c(Cl)c1` [GW4064], the “Score (sum of observed SD values for 18 genes)” value under setting [1] is −12.2 SD.
On the same count and under the same terms, next, `C[C@H](NC(=O)Cc1cc(F)cc(F)c1)C(=O)N[C@@H]1C(=O)N(C)c2ccccc2-c2ccccc21` [0YO-1027]: −38.72 SD; `CCC(C)(C)C(=O)O[C@H]1C[C@@H](C)C=C2C=C[C@H](C)[C@H](CC[C@@H]3C[C@@H](O)CC(=O)O3)[C@H]21` [Simvastatin]: −20.34 SD.
Turning to `Cc1ccc(-n2nc(C(C)(C)C)cc2NC(=O)Nc2ccc(OCCN3CCOCC3)c3ccccc23)cc1` [Doramapimod], the “Score (sum of observed SD values for 18 genes)” value under setting [1] is -50.99 SD. Also, the “number of genes” value (OVCAR-8) is listed as 11 genes.
For the compound `Cc1nc(-c2ccc(OCC(C)C)c(C#N)c2)sc1C(=O)O` [Febuxostat], under setting [1], the “Score (sum of observed SD values for 18 genes)” value is given as −18.04 SD.
The same measure, in the same setting: the value for `O=C(O)CC[C@H]1CC[C@@](c2cc(F)ccc2F)(S(=O)(=O)c2ccc(Cl)cc2)CC1` [MK-0752] was −34.92 SD; that for `Cc1cc(O)c2c(c1)C(=O)c1cccc(O)c1C2=O` [Chrysophanol] was −5.16 SD.
Consider `CCCCc1nc2cc(/C=C/C(=O)NO)ccc2n1CCN(CC)CC` [Pracinostat], for which, under setting [1], the “Score (sum of observed SD values for 18 genes)” value is reported as −43.48 SD. Besides, under “OVCAR-8”, the “synergy / antagonism of drug” value was “mostly synergistic” and the “number of genes” value stood at 11 genes.
With `COc1cc(Nc2ncc3c(n2)-c2ccc(Cl)cc2C(c2c(F)cccc2OC)=NC3)ccc1C(=O)O` [Alisertib], the “Score (sum of observed SD values for 18 genes)” value under setting [1] is −2.8 SD.
